pIC50: −log10 of the molar value.
What was measured:
SW620 tumors = experiment: intratumor pharmacokinetics, SW620 xenografts; format: in vivo, mice; conditions: single i.p. 100 mg kg^−1
Procedure: C.B.-17 scid-bg (scid-bg) or C.B.-17 scid (scid) mice were obtained from Charles River Laboratories (Wilmington, Mass., USA) at 5-6 weeks of age and used for studies when greater than 8 weeks of age and/or about 20 grams in size. All animal studies were conducted in a specific pathogen-free environment in accordance with the Internal Institutional Animal Care and Use Committee (IACUC), accredited by the American Association of Laboratory Animal Care under conditions that meet or exceed the standards set by the United States Department of Agriculture Animal Welfare Act, Public Health Service policy on humane care and use of animals and the NIH guide on laboratory animal welfare. Overt signs of dehydration, lack of grooming, lethargy, greater than 15% weight loss as well as tumor volume greater then 20% body weight were used to determine tumor end point. SW620 cell lines were obtained from the ATCC (Manassas, Va.) and cultured according to their recommendations without antibiotics and routinely tested for Mycoplasma and confirmed to be microbe-free by infectious microbe PCR amplification test (IMPACT; Missouri Research Animal Diagnostic Laboratory, Columbia, Mo.) prior to in vivo inoculation. […] Two bisecting diameters were measured with calipers and tumor volumes were estimated from the formula: (length×width^2)/2. […]

SW620^ABCB1/3 = experiment: colony formation, SW620^ABCB1/3; format: cell-based, human; conditions: Homo sapiens
Procedure: (§1) SW620^ABCB1/3 and the respective parental cell lines were washed and 500 cells/well were seeded into six-well plates in drug-free medium. Then, 24 hours later, compounds were diluted in DMEM or RPMI, added to the cells, which were cultured at 37° C. for 7-10 days. Cells were then fixed and stained with 0.2% crystal violet to visualize and count colonies.

SW620 xenografts = experiment: tumor histone H3 phosphorylation, SW620 xenografts; format: in vivo, mice
Procedure: SW620 and SW620^ABCB1/3 cells were washed and allowed to grow in drug-free medium overnight. […] The lysates were then probe-sonicated for 10 seconds then clarified by centrifugation at 15,000 g for 15 minutes at 4° C. After treatment with SDS-sample buffer, protein extracts were resolved on NuPAGE Bis-Tris 4-12% gels (Invitrogen (Carlsbad, Calif.)). Samples were electrotransferred to PVDF membranes (Invitrogen (Carlsbad, Calif.)), incubated with primary antibody overnight, and developed using Pierce Dura-Signal chemiluminescence reagents (Pierce, Rockford, Ill.), or Odyssey infrared imaging system from LI-COR Biosciences (Lincoln, Nebr.). C.B.-17 scid-bg (scid-bg) or C.B.-17 scid (scid) mice were obtained from Charles River Laboratories (Wilmington, Mass., USA) at 5-6 weeks of age and used for studies when greater than 8 weeks of age and/or about 20 grams in size. […] Two bisecting diameters were measured with calipers and tumor volumes were estimated from the formula: (length×width^2)/2. […]

[1] = tested on: panel of 50 other kinases; conditions: cited from earlier work
SW620 cells = experiment: histone H3 phosphorylation immunoblot, SW620; format: cell-based, human
Procedure: SW620 and SW620^ABCB1/3 cells were washed and allowed to grow in drug-free medium overnight. […] The lysates were then probe-sonicated for 10 seconds then clarified by centrifugation at 15,000 g for 15 minutes at 4° C. After treatment with SDS-sample buffer, protein extracts were resolved on NuPAGE Bis-Tris 4-12% gels (Invitrogen (Carlsbad, Calif.)). Samples were electrotransferred to PVDF membranes (Invitrogen (Carlsbad, Calif.)), incubated with primary antibody overnight, and developed using Pierce Dura-Signal chemiluminescence reagents (Pierce, Rockford, Ill.), or Odyssey infrared imaging system from LI-COR Biosciences (Lincoln, Nebr.).

cell line panel = experiment: 7-day colony formation or viability, cell line panel; format: cell-based, human; conditions: Homo sapiens; most (sensitive) cell lines of the panel
Procedure: as §1

With `CCN(CCO)CCCOc1ccc2c(Nc3cc(CC(=O)Nc4cccc(F)c4)[nH]n3)ncnc2c1` [AZD1152 HQPA] the “period of tumor concentration above threshold” value (SW620 tumors) was “at least 24 hours”, the pIC50 (SW620^ABCB1/3) was 5.70 and the “minimum threshold intratumor concentration to inhibit histone H3 phosphorylation” value (SW620 xenografts; SW620 xenografts, potency x fold loss in 50% (v/v) mouse plasma) was 0.1 µM. The “inhibition of Aurora B (histone H3 phosphorylation) in tumors” value (SW620 xenografts; parental SW620 xenografts, single dose 100 mg kg^−1 i.p.) was “Sustained inhibition”, the “activity against a panel of 50 other kinases” value [1] was “inactive” and the “intrinsic potency (histone H3 phosphorylation)” value (SW620 cells) was 0.02 µM. It also gave a pIC50 (cell line panel) of 7.82 to 8.40.

Reference: US20100196907A1, “MARKERS TO PREDICT AND MONITOR RESPONSE TO AURORA KINASE B INHIBITOR THERAPY” (ABBOTT LABORATORIES, priority 2009, published 2010)
